Read-outs that look alike come from different tables or passages of the source.
How the values were obtained:
clinical = settings: human, in vivo; for AUC: AUCss,0-24h; for Vd/F: Vz/F; for Tmax: median; for half-life: t½
Protocol: (§1) Postdose samples were collected at 0.5, 1, 2, 4, 6, and 8 h on Day 1, and at 1 h on Day 14 of Cycle 1. For patients in the CD regimen, a postdose sample at 6 h on Day 14 was also collected.
(§2) Pharmacodynamic data were presented using summary statistics.

pFGFR2 = settings: read-out: In vivo IC50 for the inhibition of pFGFR2; cited from earlier work
[1] = human, in vivo
Protocol: as §1, §2

[2] = cited from earlier work
advanced solid tumors = test: FIGHT-102 efficacy, investigator-assessed RECIST 1.1; type: in vivo, human; parameters: key to Best overall response: PR, partial response; SD, stable disease; PD, progressive disease; NE, not evaluable
Protocol: Efficacy assessments occurred at screening (baseline scan) and on Day 15 of every third cycle with a ±2‐day window. Tumor status was assessed by the investigator using appropriate disease‐specific techniques. For solid tumors, the Response Evaluation Criteria in Solid Tumors (RECIST) 1.1 criteria were used,[19] and the recommended method for measuring tumor burden was computed tomography scan. Alternative modalities compatible with RECIST 1.1 could be used at the investigator's discretion provided they were used consistently throughout the study.
Both the efficacy and the safety population included all patients who received at least 1 dose of study drug. The PK/pharmacodynamic population included all patients who received at least one dose of study drug and provided at least one postdose plasma sample for PK/pharmacodynamic measurement. No comparisons are made between patients or against historical controls; only comparisons to pretreatment conditions were made.

[3] = Part 1, 13.5 mg ID, breast cancer, local no alteration detected
[4] = Part 1, 13.5 mg ID, cholangiocarcinoma, central FGF1 amp, FGFR2 amp
[5] = Part 1, 13.5 mg ID, other (intrahepatic cholangiocarcinoma), central no alteration detected
[6] = Part 1, 13.5 mg ID, other (lower bile duct cancer), central FGF6 mutation (p.S143N)
[7] = Part 1, 18 mg ID, neuroendocrine cancer, local FGF6/23 amp
[8] = Part 1, 18 mg ID, other (intrahepatic cholangiocarcinoma), not tested

CCN1C(=O)N(c2c(F)c(OC)cc(OC)c2F)Cc2cnc3[nH]c(CN4CCOCC4)cc3c21 [Pemigatinib]
AUC(0-t) (clinical; 9 mg, AUC0-24h, geometric mean (CV%)): 1.12 µM·h | AUC(0-t) (clinical; 9 mg, AUC0-24h, mean ± SD): 1.13 ± 0.133 µM·h | AUC(0-t) (clinical; 9 mg, AUClast, geometric mean (CV%)): 1.12 µM·h | AUC(0-t) (clinical; 9 mg, AUClast, mean ± SD): 1.12 ± 0.125 µM·h | AUC (clinical; 9 mg, geometric mean (CV%)): 2.05 µM·h | AUC (clinical; 9 mg, mean ± SD): 2.54 ± 2.1 µM·h | Cmax (clinical; 9 mg, Cmax, geometric mean (CV%)): 110 nM | Cmax (clinical; 9 mg, Cmax, mean ± SD): 114 ± 35.3 nM | Cmax (clinical; 9 mg, Cmax,ss, geometric mean (CV%)): 127 nM | Cmax (clinical; 9 mg, Cmax,ss, mean ± SD): 155 ± 117 nM | Vd/F (clinical; 9 mg, geometric mean (CV%)): 209 L | Vd/F (clinical; 9 mg, mean ± SD): 224 ± 104 L | Tmax (clinical; 9 mg): 1.9 h | half-life (clinical; 9 mg, geometric mean (CV%)): 16.1 h | half-life (clinical; 9 mg, mean ± SD): 17.1 ± 7.44 h | AUC(0-t) (clinical; 18 mg, AUC0-24h, geometric mean (CV%)): 3.31 µM·h | AUC(0-t) (clinical; 18 mg, AUC0-24h, mean ± SD): 3.45 ± 1.02 µM·h | AUC(0-t) (clinical; 18 mg, AUClast, geometric mean (CV%)): 3.24 µM·h | AUC(0-t) (clinical; 18 mg, AUClast, mean ± SD): 3.38 ± 1.01 µM·h | AUC (clinical; 18 mg, geometric mean (CV%)): 6.56 µM·h | AUC (clinical; 18 mg, mean ± SD): 6.95 ± 2.78 µM·h | Cmax (clinical; 18 mg, Cmax, geometric mean (CV%)): 344 nM | Cmax (clinical; 18 mg, Cmax, mean ± SD): 431 ± 272 nM | Cmax (clinical; 18 mg, Cmax,ss, geometric mean (CV%)): 385 nM | Cmax (clinical; 18 mg, Cmax,ss, mean ± SD): 450 ± 285 nM | Vd/F (clinical; 18 mg, geometric mean (CV%)): 154 L | Vd/F (clinical; 18 mg, mean ± SD): 205 ± 188 L | Tmax (clinical; 18 mg): 1.02 h | half-life (clinical; 18 mg, geometric mean (CV%)): 18.9 h | half-life (clinical; 18 mg, mean ± SD): 20.7 ± 11.2 h | IC50 (pFGFR2): 22.6 nM | Geometric mean fraction of dose excreted in urine [1]: 2.48% | CLss/F, geometric mean (CV%) ([1]; 9 mg): 8.99 (91.0) L/h | CLss/F, mean ± SD ([1]; 9 mg): 10.6 ± 6.31 L/h | tmax, median ([1]; 9 mg): 0.967 h | CLss/F, geometric mean (CV%) ([1]; 18 mg): 5.63 (43.8) L/h | CLss/F, mean ± SD ([1]; 18 mg): 5.96 ± 2.50 L/h | tmax, median ([1]; 18 mg): 0.833 h | AUC0-24 geometric mean ([2]; 13.5 mg QD steady state, CV% 54.1): 2.62 µM·h | Geometric mean half-life ([2]; 13.5 mg QD, CV% 51.6): 15.4 h | Cmax ([2]; 13.5 mg QD, CV% 56.4, read-out: Steady-state Cmax geometric mean): 236 nM | Terminal half-life ([2]; dose-independent): 15 h | Time to reach Cmax ([2]; doses of ≥6 mg): 1 to 2 h | Best overall response of complete response or PR (advanced solid tumors; Part 1): no patient | Median best percentage change from baseline in target lesion size (advanced solid tumors; Part 1): −2.6% | Best overall response stable disease (advanced solid tumors; Part 1, 7 patients): 50.0% | Best overall response (advanced solid tumors; Part 1, 9 mg ID, gastric cancer): SD | Best change in sum of target lesion diameters (advanced solid tumors; Part 1, 9 mg ID, gastric cancer, central and local not tested): –13.3% | Best overall response (advanced solid tumors; Part 1, 9 mg ID, other (epithelioid hemangioendothelioma)): SD | Best change in sum of target lesion diameters (advanced solid tumors; Part 1, 9 mg ID, other (epithelioid hemangioendothelioma), central and local not tested): –12.6% | Best overall response (advanced solid tumors; Part 1, 9 mg ID, other (medulloblastoma), local no alteration detected): PD | Best change in sum of target lesion diameters (advanced solid tumors; [3]): 28.1% | Best overall response (advanced solid tumors; [3]): PD | Best change in sum of target lesion diameters (advanced solid tumors; [4]): –8.5% | Best overall response (advanced solid tumors; [4]): SD | Best overall response (advanced solid tumors; Part 1, 13.5 mg ID, colorectal cancer, FGFR1 amp): PD | Best change in sum of target lesion diameters (advanced solid tumors; Part 1, 13.5 mg ID, colorectal cancer, central and local FGFR1 amp): –21.1% | Best overall response (advanced solid tumors; Part 1, 13.5 mg ID, lung cancer (NSCLC)): SD | Best change in sum of target lesion diameters (advanced solid tumors; Part 1, 13.5 mg ID, lung cancer (NSCLC), not tested): –29.0% | Best change in sum of target lesion diameters (advanced solid tumors; [5]): 4.4% | Best overall response (advanced solid tumors; [5]): SD | Best change in sum of target lesion diameters (advanced solid tumors; [6]): –5.1% | Best overall response (advanced solid tumors; [6]): SD | Best change in sum of target lesion diameters (advanced solid tumors; [7]): 37.5% | Best overall response (advanced solid tumors; [7]): PD | Best change in sum of target lesion diameters (advanced solid tumors; Part 1, 18 mg ID, other (intrahepatic cholangiocarcinoma), central none, local FGFR2 fusion): 0% | Best overall response (advanced solid tumors; Part 1, 18 mg ID, other (intrahepatic cholangiocarcinoma), local FGFR2 fusion): SD | Best change in sum of target lesion diameters (advanced solid tumors; [8]): 16.7% | Best overall response (advanced solid tumors; [8]): PD | Best overall response (advanced solid tumors; Part 1, 18 mg ID, other (pancreatic head cancer)): PD | Best change in sum of target lesion diameters (advanced solid tumors; Part 1, 18 mg ID, other (pancreatic head cancer), local no alteration detected): 1.0%
